Here are results for four compounds from US20120034320A1, “Skin Penetration Composition” (DOMINION RESOURCES, UNLIMITED, LLC, priority 2010, published 2012).

Counter-ions that a name gives are not always drawn.

In one experiment the test system is fibromyalgia. Description: Physician observation, Patient A: fibromyalgia. Format: in vivo, human. To be noted: Relievz lotion twice daily to affected areas, pregabalin 400 mg daily, other products as previously used.
Experiment [1] relates to sciatica and neuropathy (diabetic neuropathy). Kind of experiment: Physician observation, Patient B: sciatica and diabetic neuropathy. It is filed as in vivo, human. To be noted: lotion applied to affected areas. From the text:
The patient continues to use Relievz™ lotion daily.

As for `CNCC[C@H](Oc1cccc2ccccc12)c1cccs1` [Cymbalta®, duloxetine HCl], the “relief of fibromyalgia symptoms” value with fibromyalgia is “no relief”. The same measure, in the same setting: then `CC(C)C[C@H](CN)CC(=O)O` [pregabalin], with “no relief”. Turning to `CC(C)C[C@H](CN)CC(=O)O` [pregabapentin], the pain and ambulation result in experiment [1] is recorded as “continued pain”. For the compound `NCC1(CC(=O)O)CCCCC1` [gabapentin], the pain and ambulation entry in experiment [1] is on record as “continued pain”.
